Results from patent US11760754B2, “Heterocyclic mitochondrial activity inhibitors and uses thereof” (UNIVERSITÉ DE MONTRÉAL, priority 2017, dated 2023).
Like-named read-outs stand apart in the source and are kept apart here.

Tests used:
OCI-AML3 cells = assay: OCI-AML3 cell growth inhibition, dose-response viability assay (CellTiterGlo); type: cell-based; conditions: Homo sapiens, OCI-AML-3, 144 h, read-out: AML-3 EC50
Procedure: Cell dose-response viability assays. […] In the initial screen, compounds were added to seeded cells in serial dilutions (10 dilutions, 1:3, starting from […] 20 μM), in duplicates.
(§1) The potency of the compounds of Example 6 at inhibiting OCI-AML3 cell growth was tested using a procedure similar to that described for Mutritinib in Example 1. […] Murine MLL-AF9 leukemia cells (female cells) were generated by infection with VSV-G-pseudotyped MSCV MLL-AF9 IRES Puro (subcloned from a construct by Frédéric Barabé, Laval U, Quebec, QC, Canada).
(§2) Compounds were added to seeded cells in serial dilutions from 10 μM to 0.5 nM, in duplicates or quadruplicates.

MLL-AF9 cells = assay: MLL-AF9 leukemia cell growth inhibition, dose-response viability assay (CellTiterGlo); type: cell-based, murine; conditions: Mus musculus, read-out: MLL-AF9 EC50
Procedure: as §1, §2

FC(F)(F)c1ccccc1/C=C/c1nc(COc2ccc(CCCCn3ccnn3)cc2)co1 [Compound 44, (E)-4-((4-(4-(1H-1,2,3-triazol-1-YI)butyl)phenoxy)methyl)-2-(2-(trifluoromethyl)styryl)oxazole]
EC50 (OCI-AML3 cells): 1000 to 10000 nM
EC50 (MLL-AF9 cells; MLL-AF9, 120 h): > 10000 nM

OC(CCCn1ccnn1)c1ccc(OCc2coc(/C=C/c3ccc(Br)cc3F)n2)cc1 (stereo not shown) [Compound 21, (E)-1-(4-((2-(4-bromo-2-fluorostyryl)oxazol-4-yl)methoxy)phenyl)-4-(1H-1,2,3-triazol-1-yl)butan-1-ol]
EC50 (OCI-AML3 cells): 100 to 500 nM
EC50 (MLL-AF9 cells; MLL-AF9, 120 h): 50 to 100 nM

Fc1cc(C(F)(F)F)ccc1/C=C/c1nc(Cc2ccc(CCCCn3ccnn3)cc2)co1 [Compound 134, (E)-4-(4-(4-(1H-1,2,3-triazol-1-yl)butyl)benzyl)-2-(2-fluoro-4-(trifluoromethyl)styryl)oxazole]
EC50 (OCI-AML3 cells): 1000 to 10000 nM
EC50 (MLL-AF9 cells; MLL-AF9, 120 h): 500 to 1000 nM

Fc1cc(C(F)(F)F)ccc1/C=C/c1nc(COc2ccc(CCCCn3ccnn3)cc2)cs1 [Compound 131, (E)-4-((4-(4-(1H-1,2,3-triazol-1-yl)butyl)phenoxy)methyl)-2-(2-fluoro-4-(trifluoromethyl)styryl)thiazole]
EC50 (OCI-AML3 cells): 100 to 500 nM
EC50 (MLL-AF9 cells; MLL-AF9, 120 h): 100 to 500 nM

Nc1ccc(/C=C/c2nc(COc3ccc(CCCCn4ccnn4)cc3)co2)c(F)c1 [Compound 66, (E)-4-(2-(4-((4-(4-(1H-1,2,3-triazol-1-yl)butyl)phenoxy)methyl)oxazol-2-yl)vinyl)-3-fluoroaniline]
EC50 (OCI-AML3 cells): 1000 to 10000 nM
EC50 (MLL-AF9 cells; MLL-AF9, 120 h): 1000 to 10000 nM

C(=C\c1nc(COc2ccc(CCCCn3ccnn3)cc2)co1)/c1ccncc1 [Compound 80, (E)-4-((4-(4-(1H-1,2,3-triazol-1-yl)butyl)phenoxy)methyl)-2-(2-(pyridin-4-yl)vinyl) oxazole]
EC50 (OCI-AML3 cells): 500 to 1000 nM
EC50 (MLL-AF9 cells; MLL-AF9, 120 h): 100 to 500 nM

Fc1cc(C(F)(F)F)ccc1/C=C/c1nc(COc2ccc(CCCCn3ccnn3)cc2)co1 [Compound 48, (E)-4-((4-(4-(1H-1,2,3-triazol-1-yl)butyl)phenoxy)methyl)-2-(2-fluoro-4-(trifluoromethyl)styryl)oxazole]
EC50 (OCI-AML3 cells): 50 to 100 nM
EC50 (MLL-AF9 cells; MLL-AF9, 120 h): < 50 nM

Fc1cccnc1/C=C/c1nc(COc2ccc(CCCCn3ccnn3)cc2)co1 [Compound 85, (E)-4-((4-(4-(1H-1,2,3-triazol-1-yl)butyl)phenoxy)methyl)-2-(2-(3-fluoropyridin-2-yl)vinyl)oxazole]
EC50 (OCI-AML3 cells): 1000 to 10000 nM
EC50 (MLL-AF9 cells; MLL-AF9, 120 h): 1000 to 10000 nM

O=C(NC1CCCC1)OCCc1cn(CCCCc2ccc(OCc3coc(/C=C/c4ccc(C(F)(F)F)cc4F)n3)cc2)nn1 [Compound 97, (E)-2-(1-(4-(4-((2-(2-fluoro-4-(trifluoromethyl)styryl)oxazol-4-yl)methoxy)phenyl)butyl)-1H-1,2,3-triazol-4-yl)ethyl cyclopentylcarbamate]
EC50 (OCI-AML3 cells): 100 to 500 nM
EC50 (MLL-AF9 cells; MLL-AF9, 120 h): 100 to 500 nM

O=S1(=O)CCN(Cc2cnnn2CCCCc2ccc(OCc3coc(/C=C/c4ccc(C(F)(F)F)cc4)n3)cc2)CC1 [Compound 15, (E)-4-((1-(4-(4-((2-(4-(trifluoromethyl)styryl)oxazol-4-yl)methoxy)phenyl)butyl)-1H-1,2,3-triazol-5-yl)methyl)thiomorpholine 1,1-dioxide]
EC50 (OCI-AML3 cells): 500 to 1000 nM
EC50 (MLL-AF9 cells; MLL-AF9, 120 h): 100 to 500 nM

Oc1ccc(/C=C/c2nc(COc3ccc(CCCCn4ccnn4)cc3)co2)cc1 [Compound 62, (E)-4-(2-(4-((4-(4-(1H-1,2,3-triazol-1-yl)butyl)phenoxy)methyl)oxazol-2-yl)vinyl)phenol]
EC50 (OCI-AML3 cells): 100 to 500 nM
EC50 (MLL-AF9 cells; MLL-AF9, 120 h): 100 to 500 nM

O=C(CCCn1ccnn1)c1ccc(OCc2coc(/C=C/c3ccc(C(F)(F)F)cc3)n2)cc1 [Compound 16, (E)-4-(1H-1,2,3-triazol-1-yl)-1-(4-((2-(4-(trifluoromethyl)styryl)oxazol-4-yl)methoxy)phenyl)butan-1-one]
EC50 (OCI-AML3 cells): 1000 to 10000 nM
EC50 (MLL-AF9 cells; MLL-AF9, 120 h): 100 to 500 nM

Fc1cc(C(F)(F)F)ccc1/C=C/c1nc(CSc2ccc(CCCCn3ccnn3)cc2)co1 [Compound 146, (E)-4-(((4-(4-(1H-1,2,3-triazol-1-yl)butyl)phenyl)thio)methyl)-2-(2-fluoro-4-(trifluoromethyl)styryl)oxazole]
EC50 (OCI-AML3 cells): 1000 to 10000 nM
EC50 (MLL-AF9 cells; MLL-AF9, 120 h): 100 to 500 nM

COC(=O)c1ccc(/C=C/c2nc(COc3ccc(CCCCn4ccnn4)cc3)co2)cc1 [Compound 58, (E)-methyl 4-(2-(4-((4-(4-(1H-1,2,3-triazol-1-yl)butyl)phenoxy)methyl)oxazol-2-yl)vinyl)benzoate]
EC50 (OCI-AML3 cells): 500 to 1000 nM
EC50 (MLL-AF9 cells; MLL-AF9, 120 h): 1000 to 10000 nM

CN(C)c1cccc2c(S(=O)(=O)NCCNC(=O)c3ccc(/C=C/c4nc(COc5ccc(CCCCn6ccnn6)cc5)co4)cc3)cccc12 [Compound 72, (E)-4-(2-(4-((4-(4-(1H-1,2,3-triazol-1-yl)butyl)phenoxy)methyl)oxazol-2-yl)vinyl)-N-(2-(5-(dimethylamino)naphthalene-1-sulfonamido)ethyl)benzamide]
EC50 (OCI-AML3 cells): 1000 to 10000 nM
EC50 (MLL-AF9 cells; MLL-AF9, 120 h): 500 to 1000 nM

Fc1cc(C(F)(F)F)ccc1/C=C/c1nc(COc2ccc(CCCCc3ccccn3)cc2)co1 [Compound 140, (E)-2-(2-fluoro-4-(trifluoromethyl)styryl)-4-((4-(4-(pyridin-2-yl)butyl)phenoxy)methyl)oxazole]
EC50 (OCI-AML3 cells): > 10000 nM
EC50 (MLL-AF9 cells; MLL-AF9, 120 h): 1000 to 10000 nM

CN(C)C(=O)OCCc1nccn1CCCCc1ccc(OCc2coc(/C=C/c3ccc(C(F)(F)F)cc3)n2)cc1 [Compound 53, (E)-2-(1-(4-(4-((2-(4-(trifluoromethyl)styryl)oxazol-4-yl)methoxy)phenyl)butyl)-1H-imidazol-2-yl)ethyl dimethylcarbamate]
EC50 (OCI-AML3 cells): 100 to 500 nM
EC50 (MLL-AF9 cells; MLL-AF9, 120 h): 50 to 100 nM

CN(C)C(=O)OCCCCc1ccc(OCc2coc(/C=C/c3ccc(C(F)(F)F)cc3)n2)cc1 [Compound 36, (E)-4-(4-((2-(4-(trifluoromethyl)styryl)oxazol-4-yl)methoxy)phenyl)butyl dimethylcarbamate]
EC50 (OCI-AML3 cells): 1000 to 10000 nM
EC50 (MLL-AF9 cells; MLL-AF9, 120 h): 1000 to 10000 nM

Fc1ccc(/C=C/c2nc(COc3ccc(CCCCn4ccnn4)cc3)co2)c(Cl)c1 [Compound 117, (E)-4-((4-(4-(1H-1,2,3-triazol-1-yl)butyl)phenoxy)methyl)-2-(2-chloro-4-fluorostyryl)oxazole]
EC50 (OCI-AML3 cells): 100 to 500 nM
EC50 (MLL-AF9 cells; MLL-AF9, 120 h): 100 to 500 nM

Fc1cc(C(F)(F)F)ccc1/C=C/c1nc(COc2ccc(COCCn3ccnn3)cc2)co1 [Compound 115, (E)-4-((4-((2-(1H-1,2,3-triazol-1-yl)ethoxy)methyl)phenoxy)methyl)-2-(2-fluoro-4-(trifluoromethyl)styryl)oxazole]
EC50 (OCI-AML3 cells): 500 to 1000 nM
EC50 (MLL-AF9 cells; MLL-AF9, 120 h): 100 to 500 nM

COCCNC(=O)OCCc1cn(CCCCc2ccc(OCc3coc(/C=C/c4ccc(C(F)(F)F)cc4F)n3)cc2)nn1 [Compound 96, (E)-2-(1-(4-(4-((2-(2-fluoro-4-(trifluoromethyl)styryl)oxazol-4-yl)methoxy)phenyl)butyl)-1H-1,2,3-triazol-4-yl)ethyl (2-methoxyethyl)carbamate]
EC50 (OCI-AML3 cells): 500 to 1000 nM
EC50 (MLL-AF9 cells; MLL-AF9, 120 h): 100 to 500 nM

Fc1cc(C(F)(F)F)ccc1/C=C/c1nc(COc2ccc(CCCCn3cnnn3)cc2)co1 [Compound 90, (E)-4-((4-(4-(1H-tetrazol-1-yl)butyl)phenoxy)methyl)-2-(2-fluoro-4-(trifluoromethyl)styryl) oxazole]
EC50 (OCI-AML3 cells): 1000 to 10000 nM
EC50 (MLL-AF9 cells; MLL-AF9, 120 h): 100 to 500 nM

Cc1ncn(CCCCc2ccc(OCc3coc(/C=C/c4ccc(C(F)(F)F)cc4F)n3)cc2)n1 [Compound 93, (E)-2-(2-fluoro-4-(trifluoromethyl)styryl)-4-((4-(4-(3-methyl-1H-1,2,4-triazol-1-yl)butyl)phenoxy)methyl)oxazole]
EC50 (OCI-AML3 cells): 1000 to 10000 nM
EC50 (MLL-AF9 cells; MLL-AF9, 120 h): 500 to 1000 nM

COC(=O)c1coc(COc2ccc(CCCCn3ccnn3)cc2)n1 [Compound 77, Methyl 2-((4-(4-(1H-1,2,3-triazol-1-yl)butyl)phenoxy)methyl)oxazole-4-carboxylate]
EC50 (OCI-AML3 cells): 1000 to 10000 nM
EC50 (MLL-AF9 cells; MLL-AF9, 120 h): > 10000 nM

FC(F)(F)c1ccc(-c2nc(COc3ccc(CCCCn4ccnn4)cc3)co2)cc1 [Compound 28, 4-((4-(4-(1H-1,2,3-triazol-1-yl)butyl)phenoxy)methyl)-2-(4-(trifluoromethyl)phenyl)oxazole]
EC50 (OCI-AML3 cells; OCI-AML3 cells, 6 days of culture, CellTiterGlo): 1000 to 10000 nM
EC50 (MLL-AF9 cells; 120 h, MLL-AF9 cells, 5 days of culture, CellTiterGlo): 100 to 500 nM

OCCc1cn(CCCCc2ccc(OCc3coc(/C=C/c4ccc(C(F)(F)F)cc4F)n3)cc2)nn1 [Compound 95, (E)-2-(1-(4-(4-((2-(2-fluoro-4-(trifluoromethyl)styryl)oxazol-4-yl)methoxy)phenyl)butyl)-1H-1,2,3-triazol-4-yl)ethanol]
EC50 (OCI-AML3 cells): 1000 to 10000 nM
EC50 (MLL-AF9 cells; MLL-AF9, 120 h): 100 to 500 nM

O=S1(=O)CCN(Cc2cn(CCCCc3ccc(OCc4coc(/C=C/c5ccc(C(F)(F)F)cc5F)n4)cc3)nn2)CC1 [Compound 71, (E)-4-((1-(4-(4-((2-(2-fluoro-4-(trifluoromethyl)styryl)oxazol-4-yl)methoxy)phenyl)butyl)-1H-1,2,3-triazol-4-yl)methyl)thiomorpholine 1,1-dioxide]
EC50 (OCI-AML3 cells): 100 to 500 nM
EC50 (MLL-AF9 cells; MLL-AF9, 120 h): < 50 nM

O=S1(=O)CCN(Cc2cn(CCCCc3ccc(OCc4coc(/C=C/c5ccc(C(F)(F)F)cc5)n4)cc3)nn2)CC1 [Compound 10, (E)-4-((1-(4-(4-((2-(4-(trifluoromethyl)styryl)oxazol-4-yl)methoxy)phenyl)butyl)-1H-1,2,3-triazol-4-yl)methyl)thiomorpholine 1,1-dioxide]
EC50 (OCI-AML3 cells): 100 to 500 nM
EC50 (MLL-AF9 cells; MLL-AF9, 120 h): < 50 nM

C(=C\c1nc(COc2ccc(CCCCn3ccnn3)cc2)co1)/c1cccnc1 [Compound 82, (E)-4-((4-(4-(1H-1,2,3-triazol-1-yl)butyl)phenoxy)methyl)-2-(2-(pyridin-3-yl)vinyl)oxazole]
EC50 (OCI-AML3 cells): 100 to 500 nM
EC50 (MLL-AF9 cells; MLL-AF9, 120 h): 100 to 500 nM
